Measured values: PMC6563099, “Novel Thienopyrimidine Derivative, RP-010, Induces β-Catenin Fragmentation and Is Efficacious against Prostate Cancer Cells” (Cancers, 2019)

Experiments:
Format in all cases: cell-based
PC-3 = assay: MTT cytotoxicity assay, PC-3 prostate cancer cells; details: Homo sapiens, PC-3, MTT assay; means ± SDs of three independent experiments; read-out: IC50 ± SD, Prostate Cancer Cells, PC-3
Protocol: (§1) All the cells were cultured as adherent monolayers in culture flasks, and were used to determine the anti-cancer efficacy of RP-010. DMEM supplemented with 4.5 g of glucose, 10% fetal bovine serum (FBS) and 1% penicillin/streptomycin, was used to augment cell growth. Finally, the cells were incubated and grown in a humidified incubator containing 5% CO2 at 37 °C [50]. […] Cells were obtained from frozen stocks and cell passaging (up to P4) was performed at 80% cell confluency, using PBS and trypsin + 2.2-mM EDTA.
(§2) MTT assays were used to determine the cytotoxicity of the RP compounds, to PC cell lines, as previously described.

DU145 = assay: MTT cytotoxicity assay, DU145 prostate cancer cells; details: Homo sapiens, DU-145, MTT assay; means ± SDs of three independent experiments; read-out: IC50 ± SD, Prostate Cancer Cells, DU145
Protocol: as §1, §2

CRL-1459 = assay: MTT cytotoxicity assay, CRL-1459 normal colon epithelial cells; details: Homo sapiens, normal colon epithelial cell line, means ± SDs of three independent experiments, read-out: IC50 ± SD, Non-Prostate Cells, CRL-1459
Protocol: as §1, §2

CHO = assay: MTT cytotoxicity assay, CHO cells; details: Cricetulus griseus, Chinese hamster ovarian cell line, means ± SDs of three independent experiments, read-out: IC50 ± SD, Non-Prostate Cells, CHO
Protocol: as §1, §2

SMILES | IC50 (PC-3) [µM] | IC50 (DU145) [µM] | IC50 (CRL-1459) [µM] | IC50 (CHO) [µM]
O=c1[nH]c(-c2ccc([N+](=O)[O-])cc2)nc2sc3c(c12)CCCC3 [RP6] | > 100 | > 100 | > 100 | > 100
O=c1[nH]c(-c2ccc(F)cc2)nc2sc3c(c12)CCCC3 [RP2] | > 100 | > 100 | > 100 | > 100
O=c1[nH]c(-c2ccc(Cl)cc2)nc2sc3c(c12)CCCC3 [RP3] | > 100 | > 100 | > 100 | > 100
COc1cccc(-c2nc3sc4c(c3c(=O)[nH]2)CCCC4)c1O [RP13] | > 100 | > 100 | > 100 | > 100
Cc1ccc(-c2nc3sc4c(c3c(=O)[nH]2)CCCC4)cc1 [RP7] | > 100 | > 100 | > 100 | > 100
COc1cccc(-c2nc3sc4c(c3c(=O)[nH]2)CCCC4)c1 [RP9] | 2.8 ± 1.1 | > 100 | > 100 | > 100
O=c1[nH]c(-c2ccccc2)nc2sc3c(c12)CCCC3 [RP1] | > 100 | > 100 | > 100 | > 100
O=c1[nH]c(-c2cccc([N+](=O)[O-])c2)nc2sc3c(c12)CCCC3 [RP5] | > 100 | > 100 | > 100 | > 100
COc1ccc(-c2nc3sc4c(c3c(=O)[nH]2)CCCC4)cc1OC [RP11] | 6.6 ± 0.7 | 2.7 ± 0.5 | > 100 | > 100
N#Cc1ccc(-c2nc3sc4c(c3c(=O)[nH]2)CCCC4)cc1 [RP8] | 6.4 ± 0.5 | > 100 | > 100 | > 100
COc1cc(OC)cc(-c2nc3sc4c(c3c(=O)[nH]2)CCCC4)c1 [RP12] | 6.9 ± 1 | > 100 | > 100 | > 100
O=c1[nH]c(-c2ccc(Cl)cc2Cl)nc2sc3c(c12)CCCC3 [RP4] | 73.4 ± 3.1 | > 100 | > 100 | > 100
